In publication PMC10977697 (PLOS ONE, 2024):
Where no end group is shown, it is not given here.

Test system: EpCAM
Assay: Spot phage ELISA, EpCAM
Assay type: binding, human
Conditions: spot phage ELISA signal-to-noise on EpCAM

| Sequence | S/N |
| --- | --- |
| GCPRILMRCKQDSDCQPVCG (disulfide (positions not given here)) [EpCAM EET I-II 5] | 22.8 |
| GCPRILMRCKQDSDCHAFCG (disulfide (positions not given here)) [EpCAM EET I-II 30] | 17.5 |
| GPTQSHYGQCGGMGYQGMIKCSGTTCQYVARQASQCLPGAS (disulfide (positions not given here)) [EpCAM CBD 47] | 10.5 |
| GPTQSHYGQCGGPGYPGYIRCSGTTCQWIHSRTSQCLPGAS (disulfide (positions not given here)) [EpCAM CBD 89] | 5.8 |
| GPTQSHYGQCGGGGYRGVVCSGTTCQPFFVFGSQCLPGAS (disulfide (positions not given here)) [EpCAM CBD 22] | 17.1 |
| GCPRILMRCKQDSDCMPVCG (disulfide (positions not given here)) [EpCAM EET I-II 4] | 23 |
| GPTQSHYGQCGGSGYPGAVVCSGTTCQWRQVPRSQCLPGAS (disulfide (positions not given here)) [EpCAM CBD 18] | 18.3 |
| GPTQSHYGQCGGKGYNGYFVCSGTTCQWKAKTDSQCLPGAS (disulfide (positions not given here)) [EpCAM CBD 15] | 19.3 |
| GCPRILMRCKQDSDCEAICG (disulfide (positions not given here)) [EpCAM EET I-II 8] | 21.9 |
| GPTQSHYGQCGGMGYHGFIVCSGTTCQHMMPTTSQCLPGAS (disulfide (positions not given here)) [EpCAM CBD 12] | 19.8 |
| GPTQSHYGQCGGVGYHGMIVCSGTTCQWKPSVYSQCLPDAS (disulfide (positions not given here)) [EpCAM CBD 76] | 7.6 |
| GCPRILMRCKQDSDCLPVCG (disulfide (positions not given here)) [EpCAM EET I-II 17] | 19.8 |
| GPTQSHYGQCGGPGYQGFIVCSGTTCQYRQPSESQCLPGAS (disulfide (positions not given here)) [EpCAM CBD 2] | 24.7 |
| GPTQSHYGQCGGSGYKGVIVCSGTTCQYKIMTMSQCLPGAS (disulfide (positions not given here)) [EpCAM CBD 44] | 11.1 |
| GPTQSHYGQCGGYVGAIMCSGTTCQFQHVKQSQCLPGAS (disulfide (positions not given here)) [EpCAM CBD 38] | 12.9 |
| GPTQSHYGQCGGRGYVGGIKCSGTTCQOVHAHPSQCLPGAS (disulfide) [EpCAM CBD 72] | 8.0 |
| GPTQSHYGQCGGSGYKGAIKCSGTTCQLVTVHVSQCLPGAS (disulfide (positions not given here)) [EpCAM CBD 46] | 10.7 |
| GPTQSHYGQCGGRGYPGRMVCSGTTCQYVAPMISQCLPGAS (disulfide (positions not given here)) [EpCAM CBD 27] | 16.6 |
| GPTQSHYGQCGGRGYKGAIVCSGTTCQVAQMYQSQCLPGAS (disulfide (positions not given here)) [EpCAM CBD 86] | 6.6 |
| GPTQSIYGVCGGIGYVGGRYCSGTTCQIPEKYKSQCLPGAS (disulfide (positions not given here)) [EpCAM CBD 45] | 11.1 |
| GPTQSHYGQCGGSGYYGYIVCSGTTCQFKPSGRSQCLPGAS (disulfide (positions not given here)) [EpCAM CBD 81] | 7.0 |
| GPTQSHYGQCGGTGYHGVMLCSGTTCQLWAHPLSQCLPGAS (disulfide (positions not given here)) [EpCAM CBD 11] | 20.6 |
| GPTQSHYGQCGGSGYYGVIVCSGTTCQYVNRKPSQCLPGAS (disulfide (positions not given here)) [EpCAM CBD 36] | 13.1 |
| GPTQSHYGQCGGRGYPGFIRCSGTTCQFVQSVQSQCLPGAS (disulfide (positions not given here)) [EpCAM CBD 78] | 7.4 |
| GCRRMGVRCKQDSDCLAGCVCWHDPQCG (disulfide (positions not given here)) [EpCAM EET I-II 3] | 23 |
